Consider 15 molecules from ChEMBL document CHEMBL5055657, “Effect of phenylurea hydroxamic acids on histone deacetylase and VEGFR-2” (Bioorg Med Chem, 2021).

One test in a line: cells. In kind it is functional. The settings on record: Homo sapiens, Endothelial progenitor cell; time 48 hrs.
A further test deals with SK-HEP1. In words: cells. It is filed as functional, cell-based. The settings on record: Homo sapiens, SK-HEP1, 48 h.
The next test concerns PC-3. The test can be described thus: cells. It is filed as functional, cell-based. The settings on record: Homo sapiens, PC-3, 48 h.
In another test the test system is A549. In words: cells. The conditions noted are these: Homo sapiens, A549, 48 h. In kind it is functional, cell-based.
In test [1] the target is T1, Protein deacetylase HDAC6 (Homo sapiens, UniProt Q9UBN7).
T1 sequence (Q9UBN7 whole entry): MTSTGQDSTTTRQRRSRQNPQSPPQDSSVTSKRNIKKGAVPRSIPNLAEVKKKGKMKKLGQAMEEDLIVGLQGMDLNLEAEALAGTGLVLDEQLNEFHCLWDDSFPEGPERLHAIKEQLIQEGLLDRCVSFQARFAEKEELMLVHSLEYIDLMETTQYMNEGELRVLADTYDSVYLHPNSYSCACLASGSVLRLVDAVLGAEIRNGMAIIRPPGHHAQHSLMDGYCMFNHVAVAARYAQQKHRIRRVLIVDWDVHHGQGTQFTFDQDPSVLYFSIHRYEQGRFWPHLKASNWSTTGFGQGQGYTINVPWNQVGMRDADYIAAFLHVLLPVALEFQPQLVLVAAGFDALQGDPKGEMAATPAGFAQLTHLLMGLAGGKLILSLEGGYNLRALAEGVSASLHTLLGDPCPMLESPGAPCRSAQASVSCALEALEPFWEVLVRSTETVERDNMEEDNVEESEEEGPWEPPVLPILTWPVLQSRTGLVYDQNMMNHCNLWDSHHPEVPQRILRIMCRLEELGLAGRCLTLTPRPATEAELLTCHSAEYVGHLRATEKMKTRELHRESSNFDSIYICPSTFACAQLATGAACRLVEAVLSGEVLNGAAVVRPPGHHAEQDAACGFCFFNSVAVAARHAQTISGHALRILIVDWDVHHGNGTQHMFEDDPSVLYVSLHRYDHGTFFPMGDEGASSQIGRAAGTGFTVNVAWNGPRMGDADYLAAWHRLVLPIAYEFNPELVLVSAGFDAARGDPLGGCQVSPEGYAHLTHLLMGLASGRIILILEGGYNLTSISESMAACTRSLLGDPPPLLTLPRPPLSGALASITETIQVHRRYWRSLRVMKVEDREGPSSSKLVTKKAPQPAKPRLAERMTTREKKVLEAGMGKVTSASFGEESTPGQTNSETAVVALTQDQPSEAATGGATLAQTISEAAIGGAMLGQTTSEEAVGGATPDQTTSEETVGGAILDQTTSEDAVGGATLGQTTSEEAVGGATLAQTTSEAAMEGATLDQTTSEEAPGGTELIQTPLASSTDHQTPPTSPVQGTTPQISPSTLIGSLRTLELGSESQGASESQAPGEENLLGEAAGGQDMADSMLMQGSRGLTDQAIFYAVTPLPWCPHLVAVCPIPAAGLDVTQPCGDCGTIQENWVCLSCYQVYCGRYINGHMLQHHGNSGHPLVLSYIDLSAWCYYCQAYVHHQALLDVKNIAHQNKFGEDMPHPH
The test can be described thus: Inhibition of full length recombinant N-terminal GST-tagged human HDAC6 expressed in baculovirus infected Sf9 insect cells using RHK-K(Ac)-AMC as substrate measured after 90 mins by fluorescence plate reader assay.

For the next test, the target named is Histone deacetylase 1 (Homo sapiens, UniProt Q13547). The test can be described thus: Inhibition of full length recombinant C-terminal FLAG/His-tagged human HDAC1 expressed in baculovirus infected Sf21 insect cells using RHK-K(Ac)-AMC as substrate measured after 60 mins by fluorescence plate reader assay.
Histone deacetylase 1, sequence (Q13547 whole entry): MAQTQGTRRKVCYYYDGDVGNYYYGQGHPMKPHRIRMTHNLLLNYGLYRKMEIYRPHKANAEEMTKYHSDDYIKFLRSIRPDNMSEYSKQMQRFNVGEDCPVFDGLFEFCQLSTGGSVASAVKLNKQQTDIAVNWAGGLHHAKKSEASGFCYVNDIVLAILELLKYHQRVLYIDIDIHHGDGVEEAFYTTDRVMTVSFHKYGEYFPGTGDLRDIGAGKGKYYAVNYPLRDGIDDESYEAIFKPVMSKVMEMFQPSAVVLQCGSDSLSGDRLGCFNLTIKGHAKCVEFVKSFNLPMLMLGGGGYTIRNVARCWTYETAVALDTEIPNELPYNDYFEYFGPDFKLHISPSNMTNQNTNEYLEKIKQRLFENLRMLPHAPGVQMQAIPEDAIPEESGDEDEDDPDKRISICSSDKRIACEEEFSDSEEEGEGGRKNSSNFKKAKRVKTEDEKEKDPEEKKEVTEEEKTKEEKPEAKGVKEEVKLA
In test [2] the target is T2, Histone deacetylase (Homo sapiens) (UniProt Q13547+O15379+Q9UBN7+Q92769+Q9UQL6+Q8WUI4+Q9BY41+Q96DB2+P56524+Q9UKV0+Q969S8). The test can be described thus: Inhibition of HDAC in human PC-3 cells assessed as increase in acetylated alpha tubulin level measured after 24 hrs by Western blot analysis. In kind it is cell-based. The settings on record: dose 5-10 µM. (In general: In western blotting, separated proteins are transferred to a membrane and probed.)

The target in test [3] is T3, Vascular endothelial growth factor receptor 2 (Homo sapiens, UniProt P35968). In words: Inhibition of VEGFR2 phosphorylation in human Endothelial progenitor cells at 5 to 10 uM measured after 10 mins by Western blot analysis. In kind it is tissue-based. The settings on record: Endothelial progenitor cell, dose 5-10 µM.
T3 sequence (P35968 whole entry, the tested form may be a part): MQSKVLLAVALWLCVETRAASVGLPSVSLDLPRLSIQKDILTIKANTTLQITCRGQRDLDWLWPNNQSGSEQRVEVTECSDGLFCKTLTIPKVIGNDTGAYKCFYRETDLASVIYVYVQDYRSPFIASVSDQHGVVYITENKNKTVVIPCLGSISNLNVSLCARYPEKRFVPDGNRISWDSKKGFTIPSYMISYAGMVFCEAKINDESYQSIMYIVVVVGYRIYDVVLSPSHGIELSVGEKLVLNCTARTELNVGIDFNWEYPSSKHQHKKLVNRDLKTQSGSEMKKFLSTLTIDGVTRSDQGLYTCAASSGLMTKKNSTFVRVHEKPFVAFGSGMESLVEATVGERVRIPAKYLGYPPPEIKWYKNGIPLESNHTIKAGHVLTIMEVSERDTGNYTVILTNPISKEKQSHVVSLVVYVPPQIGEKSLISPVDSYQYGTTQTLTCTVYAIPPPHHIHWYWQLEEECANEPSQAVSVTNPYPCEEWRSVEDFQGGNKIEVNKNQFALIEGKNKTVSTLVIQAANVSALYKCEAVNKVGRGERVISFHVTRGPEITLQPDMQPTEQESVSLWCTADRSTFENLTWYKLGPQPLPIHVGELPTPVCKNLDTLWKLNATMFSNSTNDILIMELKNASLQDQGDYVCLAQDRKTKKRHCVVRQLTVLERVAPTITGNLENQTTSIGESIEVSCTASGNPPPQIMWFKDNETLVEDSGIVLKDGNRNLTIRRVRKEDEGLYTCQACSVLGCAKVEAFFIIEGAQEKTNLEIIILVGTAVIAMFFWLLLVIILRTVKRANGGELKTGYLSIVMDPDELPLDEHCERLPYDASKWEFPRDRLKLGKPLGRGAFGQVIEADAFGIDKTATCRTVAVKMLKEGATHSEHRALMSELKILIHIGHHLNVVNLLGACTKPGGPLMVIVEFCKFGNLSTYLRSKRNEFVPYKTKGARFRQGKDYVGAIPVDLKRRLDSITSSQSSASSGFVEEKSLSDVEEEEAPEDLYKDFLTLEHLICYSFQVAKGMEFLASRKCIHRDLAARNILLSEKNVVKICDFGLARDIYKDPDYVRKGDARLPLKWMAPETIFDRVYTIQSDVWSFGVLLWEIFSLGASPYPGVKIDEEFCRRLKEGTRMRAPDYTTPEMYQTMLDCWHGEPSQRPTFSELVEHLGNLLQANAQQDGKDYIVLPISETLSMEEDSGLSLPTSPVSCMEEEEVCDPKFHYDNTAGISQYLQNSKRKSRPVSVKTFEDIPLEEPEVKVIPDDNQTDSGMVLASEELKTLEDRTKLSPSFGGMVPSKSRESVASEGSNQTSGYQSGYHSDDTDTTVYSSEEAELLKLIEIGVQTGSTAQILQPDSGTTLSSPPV
Test [4] is filed under the species Homo sapiens. In words: Selectivity ratio of IC50 for full length recombinant C-terminal GST-fusion-tagged human HDAC2 to IC50 for full length recombinant N-terminal GST-tagged human HDAC6 expressed in baculovirus infected Sf9 insect cells.
The species named for test [5] is Homo sapiens. In words: Selectivity ratio of IC50 for full length recombinant C-terminal FLAG/His-tagged human HDAC1 expressed in baculovirus infected Sf21 insect cells to IC50 for full length recombinant N-terminal GST-tagged human HDAC6 expressed in baculovirus infected Sf9 insect cells.
The target in test [6] is T2, Histone deacetylase (Homo sapiens). In words: Inhibition of HDAC in human SK-HEP1 cells assessed as increase in acetylated histone H3 level measured after 24 hrs by Western blot analysis. The settings on record: dose 5-10 µM. In kind it is cell-based.
The target in a further test is Histone deacetylase 2 (Homo sapiens, UniProt Q92769). The test can be described thus: Inhibition of full length recombinant C-terminal GST-fusion-tagged human HDAC2 expressed in insect cells using RHK-K(Ac)-AMC as substrate measured after 60 mins by fluorescence plate reader assay.
Histone deacetylase 2, sequence (Q92769 whole entry, the tested form may be a part): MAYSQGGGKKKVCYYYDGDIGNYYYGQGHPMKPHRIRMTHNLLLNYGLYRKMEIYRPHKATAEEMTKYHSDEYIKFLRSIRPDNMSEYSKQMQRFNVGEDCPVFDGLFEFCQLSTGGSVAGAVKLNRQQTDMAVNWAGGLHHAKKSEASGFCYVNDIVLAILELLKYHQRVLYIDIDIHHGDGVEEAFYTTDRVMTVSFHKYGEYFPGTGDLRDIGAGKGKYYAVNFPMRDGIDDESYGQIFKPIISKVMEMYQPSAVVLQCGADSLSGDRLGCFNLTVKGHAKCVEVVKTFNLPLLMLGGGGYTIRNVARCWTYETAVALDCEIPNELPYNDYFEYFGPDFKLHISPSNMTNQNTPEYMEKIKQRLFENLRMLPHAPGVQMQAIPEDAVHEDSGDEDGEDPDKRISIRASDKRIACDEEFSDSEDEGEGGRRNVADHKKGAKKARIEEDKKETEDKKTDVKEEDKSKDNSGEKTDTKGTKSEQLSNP
Test [7] concerns the target T2, Histone deacetylase (Homo sapiens). The test can be described thus: Inhibition of HDAC in human PC-3 cells assessed as increase in acetylated histone H3 level measured after 24 hrs by Western blot analysis. The conditions noted are these: dose 5-10 µM. It is filed as cell-based.
Test [8] has the same target. In words: Inhibition of HDAC in human SK-HEP1 cells assessed as increase in acetylated alpha tubulin level measured after 24 hrs by Western blot analysis. It is filed as cell-based. The settings on record: dose 5-10 µM.
For test [9], the target named is T3, Vascular endothelial growth factor receptor 2.
The species entered for test [10] is Homo sapiens. The test can be described thus: Selectivity ratio of IC50 for recombinant C-terminal His-fusion tagged/N-terminal Strep2 tagged human HDAC8 (1 to 377 residues) expressed in insect cells to IC50 full length recombinant N-terminal GST-tagged human HDAC6 expressed in baculovirus infected Sf9 insect cells.
Test [11] addresses T2, Histone deacetylase (Homo sapiens). In words: Inhibition of HDAC in human A549 cells assessed as increase in acetylated histone H3 level measured after 24 hrs by Western blot analysis. It is filed as cell-based. The settings on record: dose 5-10 µM.
For test [12] the target is unchanged. The test can be described thus: Inhibition of HDAC in human A549 cells assessed as increase in acetylated alpha tubulin level measured after 24 hrs by Western blot analysis. It is filed as cell-based. The settings on record: dose 5-10 µM.
Another test addresses T4, Histone deacetylase 8 (Homo sapiens, UniProt Q9BY41).
T4 sequence (Q9BY41 whole entry): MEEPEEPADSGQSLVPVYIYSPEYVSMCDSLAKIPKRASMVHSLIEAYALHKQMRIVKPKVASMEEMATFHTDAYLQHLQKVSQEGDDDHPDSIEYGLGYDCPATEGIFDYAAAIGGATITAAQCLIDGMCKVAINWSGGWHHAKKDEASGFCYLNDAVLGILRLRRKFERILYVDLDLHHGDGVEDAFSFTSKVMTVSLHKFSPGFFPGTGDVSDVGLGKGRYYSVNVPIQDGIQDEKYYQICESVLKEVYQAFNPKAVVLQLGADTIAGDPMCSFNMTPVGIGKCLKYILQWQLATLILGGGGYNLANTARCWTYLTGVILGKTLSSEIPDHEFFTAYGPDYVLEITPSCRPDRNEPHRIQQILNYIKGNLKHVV
In words: Inhibition of recombinant C-terminal His-fusion tagged/N-terminal Strep2 tagged human HDAC8 (1 to 377 residues) expressed in insect cells using RHK-K(Ac)-K(Ac)-AMC as substrate measured after 60 mins by fluorescence plate reader assay.

Test [13] concerns Endothelial progenitor cell. In words: Antiangiogenesis activity in human Endothelial progenitor cells assessed as retarded capillary like tube formation measured for 24 hrs by microscopic analysis. In kind it is functional, tissue-based. The settings on record: dose 5-10 µM.

By GI50 is commonly meant the concentration that inhibits growth by half. As usually defined, the IC50 is the concentration that gives 50% inhibition. In the test “cells”, `O=C(Nc1ccc2c(c1)CCCN2Cc1ccc(C(=O)NO)cc1)Nc1ccc(Cl)c(C(F)(F)F)c1` had a GI50 of 1.4 µM. Further, the IC50 in the test with SK-HEP1 amounted to 4.5 µM; with PC-3, 3.2 µM; with A549, 3 µM.

`CNC(=O)c1cc(Oc2ccc(NC(=O)Nc3ccc(Cl)c(C(F)(F)F)c3)cc2)ccn1` [SORAFENIB] displayed a GI50 in “cells” of 5 µM. The figures for the IC50 in the test on SK-HEP1, in the test on PC-3 and in the test on A549 were 7.3 µM, 6.3 µM and 5 µM, respectively.

Molecule `O=C(/C=C/c1ccc(CN2CCc3cc(NC(=O)Nc4ccc(Cl)c(C(F)(F)F)c4)ccc32)cc1)NO` yielded a GI50 in “cells” of 1.2 µM. The IC50 turned out to be 3.5 µM in the test with SK-HEP1, 2.3 µM in the test with PC-3, 2.7 µM in the test on A549 and 1.14 µM in test [1].

In the test “cells”, `O=C(CCCC(=O)Nc1ccc(NC(=O)Nc2ccc(Cl)c(C(F)(F)F)c2)cc1)NO` returned a GI50 greater than 10 µM. Moreover, the IC50 in the test on SK-HEP1, in the test on PC-3 and in the test with A549 was greater than 10 µM each time.

Consider `O=C(/C=C/c1ccc(NC(=O)Nc2ccc(Cl)c(C(F)(F)F)c2)cc1)NO`, for which it took 1 µM to inhibit growth in the test “cells” by half (GI50). The IC50 on Histone deacetylase 1 was 7.23 µM; with SK-HEP1, 3.2 µM; in the test on PC-3, 1.9 µM; in the test with A549 it was 3.4 µM; on Histone deacetylase 2 it was greater than 10 µM; in test [9] it was 13.2 µM. For the same molecule, the IC50 at Histone deacetylase 8 was determined as 1.99 µM; in [1] it was 0.166 µM. Moreover, the inhibition result in test [2], in test [3], in test [6], in test [7], in test [8] and in test [11] was “Dose-dependent effect” in each case. In addition, in test [12], the inhibition result is “Dose-dependent effect”. For the same molecule, the Ratio IC50 in the test filed under Homo sapiens [4] is greater than 60.2; in the test filed under Homo sapiens [5], 43.6; in the test listed under Homo sapiens [10] it was 12. For the same molecule, the Activity entry in [13] was “Dose-dependent effect”.

In the case of `O=C(Nc1ccc(C(=O)NO)cc1)Nc1ccc(Cl)c(C(F)(F)F)c1`, it took 1.3 µM to inhibit growth in the test “cells” by half (GI50). For the same molecule, the IC50 with SK-HEP1 worked out at 3.8 µM; in the test on PC-3, 3.1 µM; with A549 it was 7.2 µM.

Consider `O=C(Nc1ccc2c(c1)N(Cc1ccc(C(=O)NO)cc1)CC2)Nc1ccc(Cl)c(C(F)(F)F)c1`, for which the GI50 in the test “cells” was 1.4 µM. The inhibition result in test [2], in test [6], in test [7], in test [8], in test [11] and in test [12] was “Dose-dependent effect” each time. Further, the IC50 in the test with SK-HEP1 came to 4.5 µM; with PC-3 it was 3.1 µM; with A549, 2.8 µM; on Histone deacetylase 8, 1.71 µM; in [1], 0.251 µM. Besides, in the test filed under Homo sapiens [10], the Ratio IC50 is 6.8.

`O=C(CCCCC(=O)Nc1ccc(NC(=O)Nc2ccc(Cl)c(C(F)(F)F)c2)cc1)NO`: in the test “cells”, the GI50 was greater than 10 µM. The IC50 in the test with SK-HEP1, with PC-3 and with A549 was greater than 10 µM in each case.

The molecule `O=C(Nc1ccc2c(c1)CCN2c1ccc(C(=O)NO)cc1)Nc1ccc(Cl)c(C(F)(F)F)c1` returned a GI50 in “cells” of 2 µM. Besides, the IC50 with SK-HEP1 turned out to be 4.1 µM; with PC-3, 3.8 µM; in the test with A549, 3.4 µM; in [1], 0.825 µM.

In the case of `O=C(Nc1ccc2c(c1)CCCN2c1ccc(C(=O)NO)cc1)Nc1ccc(Cl)c(C(F)(F)F)c1`, halving of growth in the test “cells” (GI50) required 1 µM. Further, the IC50 with SK-HEP1 was found to be 3.4 µM; in the test with PC-3, 3 µM; in the test with A549, 2.9 µM; in test [9], 13.2 µM; in test [1], 1.2 µM.

In the test “cells”, `O=C(Nc1ccc2c(c1)CCN2Cc1ccc(C(=O)NO)cc1)Nc1ccc(Cl)c(C(F)(F)F)c1` returned a GI50 of 1.6 µM. For the same molecule, the IC50 in the test on SK-HEP1 came out at 4.6 µM; with PC-3, 3.4 µM; in the test with A549, 3.1 µM.

`O=C(Nc1ccc(NCc2ccc(C(=O)NO)cc2)cc1)Nc1ccc(Cl)c(C(F)(F)F)c1` had a 50% growth inhibitory concentration (GI50) in “cells” of 2.8 µM. For the same molecule, the IC50 was 7.2 µM in the test on SK-HEP1, 3.8 µM with PC-3 and 4.3 µM in the test with A549.

As to `O=C(CCCCCC(=O)Nc1ccc(NC(=O)Nc2ccc(Cl)c(C(F)(F)F)c2)cc1)NO`, the GI50 in “cells” was greater than 10 µM. The IC50 in the test on SK-HEP1, with PC-3 and in the test with A549 was greater than 10 µM each time.

With `O=C(CCCCCCC(=O)Nc1ccc(NC(=O)Nc2ccc(Cl)c(C(F)(F)F)c2)cc1)NO`, the GI50 in the test “cells” is 4.5 µM. For the same molecule, the IC50 worked out at 8.1 µM with SK-HEP1, 4.6 µM in the test with PC-3 and 9.5 µM with A549.

On to `O=C(Nc1ccc(Nc2ncc(C(=O)NO)cn2)cc1)Nc1ccc(Cl)c(C(F)(F)F)c1`, for which the GI50 in the test “cells” came out at 5.8 µM. In addition, the IC50 in the test with SK-HEP1, in the test on PC-3 and with A549 was greater than 10 µM each time.
